Laboratory results reported in PubChem BioAssay AID330 (DTP/NCI, 2004).
Where “and” joins values, the source holds several entries; their conditions need not be identical. Equal values may be shown once. Toxic doses and inconclusive results are not listed.

Tested on: P388 leukemia ip, CD2F1 mice, survival T/C
Test: NCI In Vivo Anticancer Drug Screen. Data for tumor model P388 Leukemia (intraperitoneal) in CD2F1 (CDF1) mice
Settings: endpoint: median survival time, higher = longer survival
Summary of the method: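 Mice carrying the transplanted tumor received test compound or vehicle. Survival was recorded in each group, and the value is the treated-group measurement divided by that of the vehicle-treated control group.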

[1] = dose: 50.0 mg/kg/injection, schedule: Q01DX009 (ip), vehicle: Klucel (hydroxypropylcellulose) (HPC)
[2] = dose: 100.0 mg/kg/injection, schedule: Q01DX009 (ip), vehicle: Klucel (hydroxypropylcellulose) (HPC)
[3] = dose: 12.5 mg/kg/injection, schedule: Q01DX009 (ip), vehicle: saline with Tween-80
[4] = dose: 25.0 mg/kg/injection, schedule: Q01DX009 (ip), vehicle: saline with Tween-80
[5] = dose: 60.0 mg/kg/injection, schedule: Q01DX005 (ip), vehicle: saline with Tween-80
[6] = dose: 50.0 mg/kg/injection, schedule: Q01DX005 (ip), vehicle: saline
[7] = dose: 100.0 mg/kg/injection, schedule: Q01DX005 (ip), vehicle: saline
[8] = dose: 200.0 mg/kg/injection, schedule: Q01DX005 (ip), vehicle: saline
[9] = dose: 100.0 mg/kg/injection, schedule: Q01DX001 (ip), vehicle: saline with Tween-80
[10] = dose: 200.0 mg/kg/injection, schedule: Q01DX001 (ip), vehicle: saline with Tween-80
[11] = dose: 50.0 mg/kg/injection, schedule: Q01DX009 (ip), vehicle: saline with Tween-80
[12] = dose: 100.0 mg/kg/injection, schedule: Q01DX009 (ip), vehicle: saline with Tween-80
[13] = dose: 200.0 mg/kg/injection, schedule: Q01DX009 (ip), vehicle: saline with Tween-80
[14] = dose: 100.0 mg/kg/injection, schedule: Q04DX002 (ip), vehicle: saline
[15] = dose: 200.0 mg/kg/injection, schedule: Q04DX002 (ip), vehicle: saline

Cc1ccc(CCN(S(=O)(=O)c2ccc(C)cc2)S(=O)(=O)c2ccc(C)cc2)cc1
T/C [1]: 92 % of control | T/C [2]: 96 % of control | T/C (dose: 200.0 mg/kg/injection, schedule: Q01DX009 (ip), vehicle: Klucel (hydroxypropylcellulose) (HPC)): 86 % of control

CC1(Br)CN([C@@H](C(=O)O)c2ccccc2)C1=O (stereo partly drawn)
T/C (dose: 50.0 mg/kg/injection, schedule: Q04DX002 (ip), vehicle: saline with Tween-80): 102 % of control | T/C (dose: 100.0 mg/kg/injection, schedule: Q04DX002 (ip), vehicle: saline with Tween-80): 96 % of control | T/C (dose: 200.0 mg/kg/injection, schedule: Q04DX002 (ip), vehicle: saline with Tween-80): 93 % of control | T/C (dose: 400.0 mg/kg/injection, schedule: Q04DX002 (ip), vehicle: saline with Tween-80): 102 % of control

NC(CSC(c1ccccc1)(c1ccccc1)c1ccc2ccccc2c1)C(=O)O (stereo not drawn)
T/C (dose: 3.13 mg/kg/injection, schedule: Q01DX009 (ip), vehicle: saline with Tween-80): 186 % of control | T/C (dose: 3.13 mg/kg/injection, schedule: Q01DX009 (ip), vehicle: water): 169 % of control | T/C (dose: 6.25 mg/kg/injection, schedule: Q01DX009 (ip), vehicle: saline with Tween-80): 198 % of control | T/C (dose: 6.25 mg/kg/injection, schedule: Q01DX009 (ip), vehicle: water): 189 % of control | T/C [3]: 261 % of control | T/C (dose: 12.5 mg/kg/injection, schedule: Q01DX009 (ip), vehicle: water): 216 % of control | T/C [4]: 90 % of control | T/C (dose: 25.0 mg/kg/injection, schedule: Q01DX009 (ip), vehicle: water): 99 % of control

CC(C)=CCCc1ccc2c(c1)C(=O)c1cc3c(cc1C2=O)OCO3
T/C (dose: 3.75 mg/kg/injection, schedule: Q01DX005 (ip), vehicle: saline with Tween-80): 101 % of control | T/C (dose: 7.5 mg/kg/injection, schedule: Q01DX005 (ip), vehicle: saline with Tween-80): 91 % of control | T/C (dose: 15.0 mg/kg/injection, schedule: Q01DX005 (ip), vehicle: saline with Tween-80): 98 % of control and 104 % of control | T/C [5]: 87 % of control

Fc1ccccc1C(Nc1cnccn1)Nc1cnccn1
T/C (dose: 12.5 mg/kg/injection, schedule: Q01DX005 (ip), vehicle: saline with Tween-80): 96 % of control | T/C (dose: 25.0 mg/kg/injection, schedule: Q01DX005 (ip), vehicle: saline with Tween-80): 102 % of control | T/C (dose: 50.0 mg/kg/injection, schedule: Q01DX005 (ip), vehicle: saline with Tween-80): 102 % of control and 109 % of control | T/C (dose: 100.0 mg/kg/injection, schedule: Q01DX005 (ip), vehicle: saline with Tween-80): 109 % of control | T/C (dose: 200.0 mg/kg/injection, schedule: Q01DX005 (ip), vehicle: saline with Tween-80): 111 % of control

COC(=O)C1=C/C=C\CN/C=C\1C(=O)OC
T/C (dose: 100.0 mg/kg/injection, schedule: Q04DX003 (ip), vehicle: alcohol): 97 % of control | T/C (dose: 200.0 mg/kg/injection, schedule: Q04DX003 (ip), vehicle: alcohol): 97 % of control | T/C (dose: 400.0 mg/kg/injection, schedule: Q04DX003 (ip), vehicle: alcohol): 106 % of control

O=P1(Oc2ccccc2)NC2CCCCC2N1 (stereo not drawn)
T/C (dose: 12.5 mg/kg/injection, schedule: Q01DX005 (ip), vehicle: Klucel + Tween-80): 95 % of control | T/C (dose: 25.0 mg/kg/injection, schedule: Q01DX005 (ip), vehicle: Klucel + Tween-80): 97 % of control | T/C (dose: 50.0 mg/kg/injection, schedule: Q01DX005 (ip), vehicle: Klucel + Tween-80): 95 % of control | T/C (dose: 100.0 mg/kg/injection, schedule: Q01DX001 (ip), vehicle: Klucel (hydroxypropylcellulose) (HPC)): 94 % of control

COC(OC)(OC)OC
T/C [6]: 104 % of control | T/C [7]: 108 % of control | T/C [8]: 109 % of control

CC1=NN(c2ccccc2)C(=O)C1N=Nc1cc([N+](=O)[O-])cc(S(=O)(=O)O)c1O.CC1=NN(c2ccccc2)C(=O)C1N=Nc1cc([N+](=O)[O-])cc(S(=O)(=O)O)c1O.[Cr] (stereo not drawn)
T/C (dose: 25.0 mg/kg/injection, schedule: Q01DX009 (ip), vehicle: saline): 106 % of control and 108 % of control | T/C (dose: 50.0 mg/kg/injection, schedule: Q01DX009 (ip), vehicle: saline): 111 % of control and 112 % of control and 115 % of control | T/C (dose: 100.0 mg/kg/injection, schedule: Q01DX009 (ip), vehicle: saline): 119 % of control and 124 % of control (2×) | T/C (dose: 200.0 mg/kg/injection, schedule: Q01DX009 (ip), vehicle: saline): 101 % of control and 103 % of control and 115 % of control

[N-]=[N+]=NC(=O)c1cnn(Cc2ccccc2)c1N
T/C [9]: 103 % of control | T/C [10]: 101 % of control

c1ccc(-c2nc3ccccc3o2)cc1
T/C [4]: 86 % of control | T/C [11]: 98 % of control | T/C [12]: 101 % of control | T/C [13]: 88 % of control

NC1=C(O)C(=O)C(c2ccccn2)O1 (stereo not drawn)
T/C (dose: 25.0 mg/kg/injection, schedule: Q01DX001 (ip), vehicle: other): 105 % of control | T/C (dose: 50.0 mg/kg/injection, schedule: Q01DX001 (ip), vehicle: other): 119 % of control | T/C (dose: 100.0 mg/kg/injection, schedule: Q01DX001 (ip), vehicle: other): 116 % of control

CCN(CC)CCNc1nc(NCCN(CC)CC)c2cn[nH]c2n1
T/C (dose: 1.5 mg/kg/injection, schedule: Q01DX005 (ip), vehicle: saline): 99 % of control | T/C (dose: 3.0 mg/kg/injection, schedule: Q01DX005 (ip), vehicle: saline): 103 % of control | T/C (dose: 6.0 mg/kg/injection, schedule: Q01DX005 (ip), vehicle: saline): 100 % of control and 102 % of control

Cc1ccc(S(=O)(=O)OCCOc2ccc(-c3nc4ccccc4[nH]3)cc2)cc1
T/C [9]: 92 % of control | T/C [10]: 90 % of control | T/C (dose: 400.0 mg/kg/injection, schedule: Q01DX001 (ip), vehicle: saline with Tween-80): 101 % of control

CCOC(=O)/C=C/C(=O)NNS(=O)(=O)CCC(NC(=O)OCc1ccccc1)C(=O)OCc1ccccc1 (stereo not drawn)
T/C (dose: 12.5 mg/kg/injection, schedule: Q01DX009 (ip), vehicle: other): 92 % of control | T/C (dose: 25.0 mg/kg/injection, schedule: Q01DX009 (ip), vehicle: other): 101 % of control | T/C (dose: 50.0 mg/kg/injection, schedule: Q01DX009 (ip), vehicle: other): 104 % of control | T/C (dose: 100.0 mg/kg/injection, schedule: Q01DX009 (ip), vehicle: other): 93 % of control | T/C (dose: 200.0 mg/kg/injection, schedule: Q01DX009 (ip), vehicle: other): 86 % of control

CC(=O)C1CCC=C2C1CC1CC2C1(C)C (stereo not drawn)
T/C (dose: 25.0 mg/kg/injection, schedule: Q01DX009 (ip), vehicle: Klucel (hydroxypropylcellulose) (HPC)): 100 % of control | T/C [1]: 100 % of control | T/C [2]: 104 % of control

CC(=O)c1nc(-c2ccccc2)oc1-c1ccccc1
T/C [14]: 96 % of control | T/C [15]: 95 % of control | T/C (dose: 400.0 mg/kg/injection, schedule: Q04DX002 (ip), vehicle: saline): 99 % of control

CC1CCCC2COCN12 (stereo not drawn)
T/C (dose: 12.5 mg/kg/injection, schedule: Q01DX005 (ip), vehicle: saline): 105 % of control and 98 % of control | T/C (dose: 25.0 mg/kg/injection, schedule: Q01DX005 (ip), vehicle: saline): 105 % of control and 106 % of control | T/C [6]: 101 % of control and 116 % of control and 118 % of control | T/C [7]: 123 % of control and 96 % of control | T/C [8]: 115 % of control

CC1(c2ccccc2)C(=O)c2ccccc2N1O (stereo not drawn)
T/C (dose: 50.0 mg/kg/injection, schedule: Q04DX002 (ip), vehicle: saline): 98 % of control | T/C [14]: 100 % of control | T/C [15]: 101 % of control

NC1C2CC3CC(C2)CC1(N)C3 (stereo not drawn)
T/C [3]: 104 % of control | T/C [4]: 102 % of control | T/C [11]: 101 % of control and 96 % of control | T/C [12]: 99 % of control | T/C [13]: 99 % of control

S=c1[nH]ccn1-c1ccccc1Cl
T/C (dose: 60.0 mg/kg/injection, schedule: Q01DX005 (ip), vehicle: Klucel (hydroxypropylcellulose) (HPC)): 101 % of control | T/C (dose: 120.0 mg/kg/injection, schedule: Q01DX005 (ip), vehicle: Klucel (hydroxypropylcellulose) (HPC)): 106 % of control | T/C (dose: 240.0 mg/kg/injection, schedule: Q01DX005 (ip), vehicle: Klucel (hydroxypropylcellulose) (HPC)): 109 % of control

C[C@@]12CCCC[C@@H]1Nc1ccccc12
T/C [5]: 98 % of control | T/C (dose: 120.0 mg/kg/injection, schedule: Q01DX005 (ip), vehicle: saline with Tween-80): 100 % of control | T/C (dose: 240.0 mg/kg/injection, schedule: Q01DX005 (ip), vehicle: saline with Tween-80): 97 % of control
